Tested on: Adult female Aedes aegypti
Test: Membrane feeder repellency test: mosquitoes probing treated collagen membranes over blood-filled wells
Assay type: in vivo
Details: for Test results (quantity not named; percentage from mosquito probing counts): 6.25 μl on collagen membrane, probes counted every 2 min for 20 min; for Test results, percentage relative to 0.3 wt % DEET in the same test: total repellent 0.30%, relative to 0.3 wt % DEET (=100%)
Method: Adult female Aedes aegypti were obtained from the i2LResearch USA, Inc. colony. Two hundred fifty (250) mosquitoes were used per replicate (seven replicates). Mosquitoes were at least 6 days old and had been deprived of sucrose solution for at least 18 hours prior to testing.
An exposure container was used to present the mosquitoes with a choice of blood-filled wells that were covered with collagen membranes (3 cm in diameter). The collagen membranes were treated by pipetting 6.25 μI of the test treatment onto the appropriate membrane and spreading it evenly with the tip of the pipette.
Exposure container. A 30.5 cm×30.5 cm×30.5 cm container (rigid plastic frame and a sleeved entry on one side and a sliding trap door on the bottom). The container was supported by four (4 cm high) legs.
Membrane feeder. Five wells (3 cm in diameter×8 mm in depth) in line on a hollow plastic block (6 cm wide×22 cm long×3 cm deep). The plastic block fit into the bottom of the exposure container. Hoses mounted on either end of the membrane feeder carried warm water that was pumped from a water bath. The sliding plastic trap door in the bottom of the exposure container covered and uncovered the wells in the membrane feeder, allowing mosquitoes to access the blood-filled wells that were covered with treated collagen membranes.
Study set-up. The membrane feeder was connected to a heated water bath, and warm water passed through the feeder via a circulating pump so that the wells were warmed to 96-100° F. Seventy-two (72) mg of ATP (disodium salt) were added to 26 ml of bovine blood. Sodium citrate was also added to the blood during collection to prevent clotting. The blood was poured into the wells until it completely filled each well (meniscus slightly above the level of the well).
Circular pieces (3 cm in diameter) of collagen membrane were placed over each of the wells. Care was taken to eliminate all air bubbles from between the membrane and the surface of the blood. Once wells were prepared, the blood was allowed to warm until the membrane temperature reached […]. Temperature was confirmed using a surface thermometer.
Treatment and exposure to mosquitoes. Once the collagen membranes were placed over the blood-filled wells, they were treated as described above. The membranes were allowed to dry for five minutes. Then the exposure container was placed on the membrane feeder. The trap door in the floor of the container was slid back, exposing the mosquitoes to the membranes. The number of mosquitoes probing the membrane covering each well was recorded every two minutes for twenty minutes. If a minimum of 20 total control probes were not achieved in a replicate, the replicate was repeated.
The above procedures were repeated until seven acceptable replicates were completed. […]

Row | Structure (SMILES) | Test results (quantity not named; percentage from mosquito probing counts) (concentration 0.15%) [%] | Test results (quantity not named; percentage from mosquito probing counts) (concentration 0.30%) [%] | Test results, percentage relative to 0.3 wt % DEET in the same test [%]
1 | CC1CCC(C(C)C)C(OCC(O)CO)C1 (stereo not shown) [Coolact 10, menthoxypropane-1,2-diol] | 45.4 | 41.5 | –
2 | CCN(CC)C(=O)c1cccc(C)c1 [DEET, N,N-diethyl-m-toluamide, reference compound] | – | – | 100.0
3 | CCNC(=O)C1CC(C)CCC1C(C)C (stereo not shown) [WS3, N-ethyl-p-menthane-3-carboxamide] | – | – | 130.0

Source: patent US20210100245A1, “SYNERGISTIC FORMULATIONS FOR CONTROL AND REPELLENCY OF BITING ARTHROPODS” (BEDOUKIAN RESEARCH, INC., priority 2019, published 2021)
